{
  "source": "patent US20110263520A1",
  "about": "“COMPOSITION FOR USE IN CONTROLLING HARMFUL ORGANISMS THAT CONTAINS 16-KETO ASPERGILLIMIDE” (priority 2008, published 2011)",
  "key": {"Laodelphax striatellus [1]": {"system": "Laodelphax striatellus", "experiment": "Foliage application test for Laodelphax striatellus (Test Example 2)", "format": "in vivo", "conditions": "other insecticide 0.313 ppm alone (16-keto aspergillimide 0 ppm); for Death rate (%): foliage application, 3 days after release", "description": "(§1) Colby's formula: Theoretical value (%)=100−(A×B)/100"}, "Laodelphax striatellus [2]": {"system": "Laodelphax striatellus", "experiment": "Laodelphax striatellus soil drenching application test (Test Example 1)", "conditions": "for Death rate (%): soil drenching, 3 days after release", "method": "Test solutions adjusted to a predetermined concentration (10% aqueous acetone solution) were applied to rice seedling in a pot by soil drenching. The rice seedling was allowed to stand for 3 days. Second instar larvae were released and was then allowed to stand in a humidistat chamber (light period 16 hr−dark period 8 hr) (25° C.).\nDeath rate (%)={number of dead larvae/(number of survived larvae+number of dead larvae)}×100\nwherein A: 100−(death rate when application was performed only with 16-keto aspergillimide); and"}, "[3]": {"system": "Haemaphysalis longicornis", "experiment": "Tickcidal effect against Haemaphysalis longicornis, dry film in glass vial (Test Example 5)", "format": "in vivo", "conditions": "for pest or weed control at 1.5 ppm: other agent 1.5 ppm alone (16-keto aspergillimide 0 ppm); for pest or weed control at 3 ppm: other agent 3 ppm alone (16-keto aspergillimide 0 ppm); for Death rate (%): Table 10; for Theoretical value (%) by Colby's formula: Table 12; for pest or weed control at 30 ppm: other agent 30 ppm alone (16-keto aspergillimide 0 ppm)", "protocol": "Acetone solutions (30 μl) adjusted to predetermined concentrations were placed in 4 mL-volume glass vials. The vials were placed on a shaker, and a dry film of the compound was prepared on the inner wall of the vials. The vials were dried for 24 hr or more. Larvae (10 or more heads) were released in the vials, and the vials were lidded. The vials were then left to stand in a humidistat chamber (25° C., humidity 85%, fully darkened conditions). […] The test was duplicated.\nas §1"}, "Laodelphax striatellus [4]": {"system": "Laodelphax striatellus", "experiment": "Root dipping application test, Laodelphax striatellus (Reference Test Example 1)", "format": "in vivo", "conditions": "0.5 μg/seedling, wheat seedlings, 3 days after release", "description": "A test solution adjusted to a predetermined concentration (10% aqueous acetone solution) was applied to the root of wheat seedlings in water culture. […] The test was duplicated.\nAs is apparent from Table 15, the systemic insecticidal activity of 16-keto aspergillimide was much higher than that of a control compound, Asperparaline A.\nThe 16-keto aspergillimide and Asperparaline A used in this test were obtained according to methods described in The Journal of Antibiotics, 1997, 50(10), 840-846. This is true of the following test examples."}, "[5]": {"system": "Haemaphysalis longicornis", "experiment": "Tickicidal effect against Haemaphysalis longicornis on body surface of mouse (Test Example 6)", "format": "in vivo", "conditions": "other agent 6 μg/2 cm^2 alone (16-keto aspergillimide 0 μg/2 cm^2)", "protocol": "Skin hair on the back of mouse (ICR, male, 5 week olds) was clipped in a diameter of about 2 cm, and a 15-mL polystyrene conical tube cut to have a height of about 1.5 cm was bonded to the body surface of the mouse with an instant adhesive. Test solutions (20 μl) adjusted with ethanol were dropped on the body surface of mice within the bonded tube. After thorough drying, larvae (10 or more heads) were released within the tube, and the tube was lidded. […] The test was hexaplicated.\nas §1"}, "[6]": {"system": "Nilaparvata lugens which is sensitive to imidacloprid", "experiment": "Foliage application test for Nilaparvata lugens, imidacloprid-sensitive strain (Test Example 4, comparison)", "format": "in vivo", "conditions": "6 days after release", "protocol": "(§2) Test solutions adjusted to a predetermined concentration (50% aqueous acetone solution) applied to rice seedlings in a pot for foliage application. […] The test was duplicated.\n(§3) For comparison, a test was carried out in the same manner as described above, except that a Nilaparvata lugens strain which is highly sensitive to imidacloprid was used.\n(§4) Regarding the origin of the test insect pests, Nilaparvata lugens which is low-sensitive to imidacloprid was an insect which had been collected outdoors in Kumamoto Prefecture, 2007, and Nilaparvata lugens which is sensitive to imidacloprid was an insect which had been collected in Kagoshima Prefecture and was then subjected to indoor successive raising."}, "[7]": {"system": "Nilaparvata lugens which is low-sensitive to imidacloprid", "experiment": "Foliage application test for Nilaparvata lugens, imidacloprid low-sensitive strain (Test Example 4)", "format": "in vivo", "conditions": "low-sensitive strain, 6 days after release", "protocol": "as §2, §3, §4"}, "[8]": {"conditions": "other insecticide 0.002 mg/seedling alone (16-keto aspergillimide 0 mg/seedling)"}, "[9]": {"conditions": "Haemaphysalis longicornis, 48 h, read-out: Death rate (%), Table 9, 2 days after release"}, "[10]": {"conditions": "treatment concentration 1.25 ppm"}, "[11]": {"conditions": "other insecticide 0.005 mg/seedling alone (16-keto aspergillimide 0 mg/seedling)"}},
  "note": "Where two headings read alike, the source gives them in different places.",
  "data": [
    {"compound": "N#Cc1nn(-c2c(Cl)cc(C(F)(F)F)cc2Cl)c(N)c1[S+]([O-])C(F)(F)F", "note": "(centres unmarked) [Fipronil, fipronil]", "values": [
      {"measurement": "Theoretical value (%) calculated by the Colby's formula", "setting": "Laodelphax striatellus [1]", "result": 21, "unit": "%"},
      {"measurement": "Death rate (%)", "setting": "Laodelphax striatellus [1]", "result": 21, "unit": "%"},
      {"measurement": "Theoretical value (%) calculated by the Colby's formula", "setting": "Laodelphax striatellus [2]", "result": 5, "unit": "%"},
      {"measurement": "Death rate (%)", "setting": "Laodelphax striatellus [2]; [8]", "result": 5, "unit": "%"}
    ]},
    {"compound": "CCN(Cc1ccc(Cl)nc1)/C(=C/[N+](=O)[O-])NC", "note": "[Nitenpyram, nitenpyram]", "values": [
      {"measurement": "pest or weed control at 40 ppm", "setting": "[3]; Haemaphysalis longicornis, 48 h, read-out: Death rate (%), Table 9, other agent 40 ppm alone (16-keto aspergillimide 0 ppm), 2 days after release", "result": 12, "unit": "%"}
    ]},
    {"compound": "C[C@H]1CCN2C[C@@]34C[C@]5(CC(=O)N(C)C5=O)C(C)(C)[C@@H]3C[C@]12C(=O)N4C", "note": "[Asperparaline A, reference compound]", "values": [
      {"measurement": "Death rate (%) for each amount of test chemical compound", "setting": "Laodelphax striatellus [4]", "result": 0, "unit": "%"}
    ]},
    {"compound": "C/C(=N\\C#N)N(C)Cc1ccc(Cl)nc1", "note": "[Acetamiprid, acetamiprid]", "values": [
      {"measurement": "pest or weed control at 1.5 ppm", "setting": "[3]; [9]", "result": 24, "unit": "%"},
      {"measurement": "pest or weed control at 3 ppm", "setting": "[3]; [9]", "result": 55, "unit": "%"}
    ]},
    {"compound": "ivermectin", "values": [
      {"measurement": "Death rate (%)", "setting": "[3]; other agent 200 ppm alone (16-keto aspergillimide 0 ppm), 2 days after release", "result": 0, "unit": "%"},
      {"measurement": "Death rate (%)", "setting": "[3]; other agent 400 ppm alone (16-keto aspergillimide 0 ppm), 2 days after release", "result": 0, "unit": "%"},
      {"measurement": "Theoretical value (%) by Colby's formula", "setting": "[3]; other agent 200 ppm alone (16-keto aspergillimide 0 ppm)", "result": 0, "unit": "%"},
      {"measurement": "Theoretical value (%) by Colby's formula", "setting": "[3]; other agent 400 ppm alone (16-keto aspergillimide 0 ppm)", "result": 0, "unit": "%"}
    ]},
    {"compound": "CN1COCN(Cc2cnc(Cl)s2)/C1=N\\[N+](=O)[O-]", "note": "[Thiamethoxam, thiamethoxam]", "values": [
      {"measurement": "pest or weed control at 30 ppm", "setting": "[3]; Haemaphysalis longicornis, 48 h, read-out: Death rate (%), Table 10, 2 days after release", "result": 21, "unit": "%"},
      {"measurement": "pest or weed control at 60 ppm", "setting": "[3]; Haemaphysalis longicornis, 48 h, read-out: Death rate (%), Table 10, other agent 60 ppm alone (16-keto aspergillimide 0 ppm), 2 days after release", "result": 26, "unit": "%"}
    ]},
    {"compound": "CC(c1ccc(C(F)(F)F)nc1)S(C)(=O)=NC#N", "note": "(centres unmarked) [Sulfoxaflor, sulfoxaflor]", "values": [
      {"measurement": "pest or weed control at 75 ppm", "setting": "[3]; Haemaphysalis longicornis, 48 h, read-out: Death rate (%), Table 10, other agent 75 ppm alone (16-keto aspergillimide 0 ppm), 2 days after release", "result": 48, "unit": "%"},
      {"measurement": "pest or weed control at 150 ppm", "setting": "[3]; Haemaphysalis longicornis, 48 h, read-out: Death rate (%), Table 10, other agent 150 ppm alone (16-keto aspergillimide 0 ppm), 2 days after release", "result": 60, "unit": "%"}
    ]},
    {"compound": "CN/C(=N/CC1CCOC1)N[N+](=O)[O-]", "note": "(centres unmarked) [Dinotefuran, dinotefuran]", "values": [
      {"measurement": "Theoretical value (%) calculated by the Colby's formula", "setting": "Laodelphax striatellus [2]", "result": 4, "unit": "%"},
      {"measurement": "Death rate (%)", "setting": "Laodelphax striatellus [2]; [8]", "result": 4, "unit": "%"},
      {"measurement": "pest or weed control at 30 ppm", "setting": "[3]; [9]", "result": 12, "unit": "%"},
      {"measurement": "pest or weed control at 50 ppm", "setting": "[3]; Haemaphysalis longicornis, 48 h, read-out: Death rate (%), Table 9, other agent 50 ppm alone (16-keto aspergillimide 0 ppm), 2 days after release", "result": 14, "unit": "%"}
    ]},
    {"compound": "CN/C(=N\\[N+](=O)[O-])NCc1cnc(Cl)s1", "note": "[Clothianidin, clothianidin]", "values": [
      {"measurement": "Theoretical value (%) calculated by the Colby's formula", "setting": "Laodelphax striatellus [1]", "result": 4, "unit": "%"},
      {"measurement": "Death rate (%)", "setting": "Laodelphax striatellus [1]", "result": 4, "unit": "%"},
      {"measurement": "pest or weed control at 5 ppm", "setting": "[3]; Haemaphysalis longicornis, 48 h, read-out: Death rate (%), Table 10, other agent 5 ppm alone (16-keto aspergillimide 0 ppm), 2 days after release", "result": 35, "unit": "%"},
      {"measurement": "pest or weed control at 10 ppm", "setting": "[3]; Haemaphysalis longicornis, 48 h, read-out: Death rate (%), Table 10, other agent 10 ppm alone (16-keto aspergillimide 0 ppm), 2 days after release", "result": 62, "unit": "%"}
    ]},
    {"compound": "O=[N+]([O-])NC1=NCCN1Cc1ccc(Cl)nc1", "note": "[Imidacloprid, imidacloprid, reference compound]", "values": [
      {"measurement": "Theoretical value (%) by Colby's formula", "setting": "[5]", "result": 22, "unit": "%"},
      {"measurement": "Death rate (%)", "setting": "[5]; mouse body surface, 3 days after release", "result": 22, "unit": "%"},
      {"measurement": "Death rate (%)", "setting": "[6]; [10]", "result": 100, "unit": "%"},
      {"measurement": "Death rate (%)", "setting": "[6]; treatment concentration 5 ppm", "result": 100, "unit": "%"},
      {"measurement": "Death rate (%)", "setting": "[6]; treatment concentration 20 ppm", "result": 100, "unit": "%"},
      {"measurement": "Theoretical value (%) calculated by the Colby's formula", "setting": "Laodelphax striatellus [1]", "result": 5, "unit": "%"},
      {"measurement": "Death rate (%)", "setting": "Laodelphax striatellus [1]", "result": 5, "unit": "%"},
      {"measurement": "Theoretical value (%) calculated by the Colby's formula", "setting": "Laodelphax striatellus [2]; [11]", "result": 5, "unit": "%"},
      {"measurement": "Death rate (%)", "setting": "Laodelphax striatellus [2]; [11]", "result": 5, "unit": "%"},
      {"measurement": "Death rate (%)", "setting": "[7]; [10]", "result": 15, "unit": "%"},
      {"measurement": "Death rate (%)", "setting": "[7]; treatment concentration 5 ppm", "result": 55, "unit": "%"},
      {"measurement": "Death rate (%)", "setting": "[7]; treatment concentration 20 ppm", "result": 85, "unit": "%"},
      {"measurement": "pest or weed control at 1.5 ppm", "setting": "[3]; [9]", "result": 26, "unit": "%"},
      {"measurement": "pest or weed control at 3 ppm", "setting": "[3]; [9]", "result": 33, "unit": "%"}
    ]}
  ]
}
